Test results from patent US7018989B2, “Chemical compounds” (University College Cardiff Consultants, LTD, priority 1995, dated 2006).
Like-named read-outs stand apart in the source and are kept apart here.

Columns and labels:
HIV-1 = experiment: microbe, parasite or virus in culture; conditions: read-out: HIV1 CEM: EC50 for inhibition of HIV-1 in CEM cells
Procedure: (§1) Cells were infected with HIV-1 as previously described [Balzarini et al. AIDS (1991), 5, 21–28]. Briefly, 5×10^5 cells per milliliter were infected with HIV-1 or HIV-2 at 100 CCID50 (50% cell culture infective dose) per milliliter of cell suspension. Then 100 μL of the infected cell suspension was transferred to microtiter plate wells and mixed with 100 μL of the appropriate dilutions of the test compounds. After 4 days giant cell formation was recorded microscopically in the HIV-infected cell cultures [CEM], and after 5 days the number of viable cells was determined by trypan blue staining of the HIV-infected cell cultures [MT4].
(§2) The data columns are, in order: • HIV1 MT4: EC50 in μM for inhibition of HIV-1 in MT4 cells. • HIV2 MT4: EC50 in μM for inhibition of HIV-2 in MT4 cells. • CC50 MT4: CC50 in μM for toxicity to MT-4 cells. • HIV1 CEM: EC50 in μM for inhibition of HIV-1 in CEM cells. • HIV2 CEM: EC50 in μM for inhibition of HIV-2 in CEM cells. • HIV2 CEM-TK-: EC50 in μM for inhibition of HIV-2 in CEM/TK^− cells. • CC50 CEM: CC50 in μM for toxicity to CEM cells. • EC50 MSV: EC50 in μM for inhibition of MSV • MCC MSV: Minimum cytotoxic concentration in MSV assay

HIV-2 [1] = experiment: Inhibition of HIV-2 in CEM cells (giant cell formation); type: cell-based; conditions: read-out: HIV2 CEM: EC50 for inhibition of HIV-2 in CEM cells
Procedure: as §1, §2

HIV-2 [2] = experiment: Inhibition of HIV-2 in CEM/TK- cells; type: cell-based
Procedure: as §1, §2

CEM cells = experiment: Toxicity to CEM cells; type: cell-based, human
Procedure: as §1, §2

MSV = experiment: Inhibition of MSV (in vitro); type: cell-based, Moloney Sarcoma Virus
Excerpt: as §2

[3] = Minimum cytotoxic concentration in MSV assay; type: cell-based
Excerpt: The data columns are, in order: • HIV1 MT4: EC50 in μM for inhibition of HIV-1 in MT4 cells. • HIV2 MT4: EC50 in μM for inhibition of HIV-2 in MT4 cells. • CC50 MT4: CC50 in μM for toxicity to MT-4 cells. • HIV1 CEM: EC50 in μM for inhibition of HIV-1 in CEM cells. • HIV2 CEM: EC50 in μM for inhibition of HIV-2 in CEM cells. • HIV2 CEM-TK-: EC50 in μM for inhibition of HIV-2 in CEM/TK^- cells. • CC50 CEM: CC50 in μM for toxicity to CEM cells. • EC50 MSV: EC50 in μM for inhibition of […]: Minimum cytotoxic concentration in MSV assay

[4] = Table 6, mean of two or more repeat experiments
[5] = Table 6, mean of two or more repeat experiments, read-out: HIV2 CEM-TK-: EC50 for inhibition of HIV-2 in CEM/TK^− cells

Compound: COC(=O)[C@@H](C)NP(=O)(OCC1C=CC(n2cc(C)c(=O)[nH]c2=O)O1)Oc1ccccc1 (stereo partly shown) [Compound 932]
- EC50 (HIV-1; [4]): 3 µM
- EC50 (HIV-2 [1]; [4]): 2 µM
- EC50 (HIV-2 [2]; [5]): 2.5 µM
- CC50 (CEM cells; [4]): > 250 µM
- EC50 (MSV; Table 6): ≥ 100 µM
- MCC MSV: Minimum cytotoxic concentration in MSV assay ([3]; Table 6): >100

Compound: Cc1cn(C2C=CC(COP(=O)(Oc3ccccc3)N3CCCC3C(=O)OCc3ccccc3)O2)c(=O)[nH]c1=O (stereo not shown) [Compound 933]
- EC50 (HIV-1; [4]): 35 µM
- EC50 (HIV-2 [1]; [4]): 12.5 µM
- EC50 (HIV-2 [2]; [5]): > 50 µM
- CC50 (CEM cells; [4]): 92 µM
- EC50 (MSV; Table 6): > 100 µM
- MCC MSV: Minimum cytotoxic concentration in MSV assay ([3]; Table 6): >100

Compound: CCOC(=O)CCNP(=O)(OCC1C=CC(n2cc(C)c(=O)[nH]c2=O)O1)Oc1ccccc1 (stereo not shown) [Compound 950]
- EC50 (HIV-1; [4]): 250 µM
- EC50 (HIV-2 [1]; [4]): ≥ 250 µM
- EC50 (HIV-2 [2]; [5]): > 250 µM
- CC50 (CEM cells; [4]): > 250 µM
- EC50 (MSV; Table 6): > 100 µM
- MCC MSV: Minimum cytotoxic concentration in MSV assay ([3]; Table 6): >100

Compound: CCOC(=O)C(C)NP(=O)(OCC1C=CC(n2cc(C)c(=O)[nH]c2=O)O1)Oc1ccccc1 (stereo not shown) [Compound 951]
- EC50 (HIV-1; [4]): 0.1 µM
- EC50 (HIV-2 [1]; [4]): 0.07 µM
- CC50 (CEM cells; [4]): 55 µM
- EC50 (MSV; Table 6): 25 µM
- MCC MSV: Minimum cytotoxic concentration in MSV assay ([3]; Table 6): >100

Compound: COC(=O)COP(=O)(OCC1C=CC(n2cc(C)c(=O)[nH]c2=O)O1)Oc1ccccc1 (stereo not shown) [Compound 980]
- EC50 (HIV-1; [4]): 27.5 µM
- EC50 (HIV-2 [1]; [4]): 50 µM
- EC50 (HIV-2 [2]; [5]): > 250 µM
- CC50 (CEM cells; [4]): > 250 µM
- EC50 (MSV; Table 6): > 100 µM
- MCC MSV: Minimum cytotoxic concentration in MSV assay ([3]; Table 6): >100

Compound: CCOC(=O)COP(=O)(OCC1C=CC(n2cc(C)c(=O)[nH]c2=O)O1)Oc1ccccc1 (stereo not shown) [Compound 981]
- EC50 (HIV-1; [4]): 12.5 µM
- EC50 (HIV-2 [1]; [4]): 12.5 µM
- EC50 (HIV-2 [2]; [5]): 150 µM
- CC50 (CEM cells; [4]): ≥ 250 µM
- EC50 (MSV; Table 6): > 100 µM
- MCC MSV: Minimum cytotoxic concentration in MSV assay ([3]; Table 6): >100

Compound: COC(=O)C(OP(=O)(OCC1C=CC(n2cc(C)c(=O)[nH]c2=O)O1)Oc1ccccc1)c1ccccc1 (stereo not shown) [Compound 982]
- EC50 (HIV-1; [4]): 1.7 µM
- EC50 (HIV-2 [1]; [4]): 0.65 µM
- EC50 (HIV-2 [2]; [5]): 15 µM
- CC50 (CEM cells; [4]): 94 µM
- EC50 (MSV; Table 6): 14 µM
- MCC MSV: Minimum cytotoxic concentration in MSV assay ([3]; Table 6): >100

Compound: COC(=O)CC(NP(=O)(OCC1C=CC(n2cc(C)c(=O)[nH]c2=O)O1)Oc1ccccc1)C(=O)OC (stereo not shown) [Compound 1078]
- EC50 (HIV-1; [4]): 0.55 µM
- EC50 (HIV-2 [1]; [4]): 0.65 µM
- EC50 (HIV-2 [2]; [5]): 0.33 µM
- CC50 (CEM cells; [4]): 209 µM
- EC50 (MSV; Table 6): 31.4 µM
- MCC MSV: Minimum cytotoxic concentration in MSV assay ([3]; Table 6): >100

Compound: Cc1cn(C2C=CC(COP(=O)(O)NC(CC(=O)O)C(=O)O)O2)c(=O)[nH]c1=O (stereo not shown) [Compound 1079]
- EC50 (HIV-1; [4]): 1.6 µM
- EC50 (HIV-2 [1]; [4]): 2.5 µM
- EC50 (HIV-2 [2]; [5]): 70 µM
- CC50 (CEM cells; [4]): ≥ 250 µM
- EC50 (MSV; Table 6): 9.3 µM
- MCC MSV: Minimum cytotoxic concentration in MSV assay ([3]; Table 6): >100

Compound: COC(=O)CCC(NP(=O)(OCC1C=CC(n2cc(C)c(=O)[nH]c2=O)O1)Oc1ccccc1)C(=O)OC (stereo not shown) [Compound 1081]
- EC50 (HIV-1; [4]): 8 µM
- EC50 (HIV-2 [1]; [4]): 5.33 µM
- EC50 (HIV-2 [2]; [5]): 16 µM
- CC50 (CEM cells; [4]): ≥ 250 µM
- EC50 (MSV; Table 6): 88.8 µM
- MCC MSV: Minimum cytotoxic concentration in MSV assay ([3]; Table 6): >100

Compound: Cc1cn(C2C=CC(COP(=O)(O)NC(CCC(=O)O)C(=O)O)O2)c(=O)[nH]c1=O (stereo not shown) [Compound 1083]
- EC50 (HIV-1; [4]): 8.5 µM
- EC50 (HIV-2 [1]; [4]): 5.5 µM
- EC50 (HIV-2 [2]; [5]): > 250 µM
- CC50 (CEM cells; [4]): ≥ 250 µM
- EC50 (MSV; Table 6): 54.6 µM
- MCC MSV: Minimum cytotoxic concentration in MSV assay ([3]; Table 6): >100

Compound: COC(=O)C(C)NP(=O)(OC[C@@H]1CC[C@H](n2cnc3c(N)ncnc32)O1)Oc1ccccc1 (stereo partly shown) [Compound 1093, 2′,3′-dideoxy Adenosine 5′-(phenylmethoxyalaninyl) phosphoramidate]
- EC50 (HIV-1; CEM cells, HIV-1): 0.016 µM
- EC50 (HIV-2 [1]; CEM cells, HIV-2): 0.035 µM
- EC50 (HIV-2 [2]; CEM/TK- cells, HIV-2, read-out: HIV2 CEM-TK-: EC50 for inhibition of HIV-2 in CEM/TK- cells): 0.055 µM
- CC50 (CEM cells; CEM cells): 2.57 µM
- EC50 (MSV; MSV): 1.95 µM
- MCC MSV: Minimum cytotoxic concentration in MSV assay ([3]; MSV assay): >20

Compound: Cc1cn(C2C=CC(COP(=O)(O)N[C@H](C)C(=O)O)O2)c(=O)[nH]c1=O (stereo partly shown) [Compound 1095]
- EC50 (HIV-1; [4]): 1.3 µM
- EC50 (HIV-2 [1]; [4]): 1.6 µM
- EC50 (HIV-2 [2]; [5]): 10 µM
- CC50 (CEM cells; [4]): > 250 µM
- EC50 (MSV; Table 6): 0.42 µM
- MCC MSV: Minimum cytotoxic concentration in MSV assay ([3]; Table 6): >100

Compound: COC(=O)C(C)NP(=O)(O)OCC1C=CC(n2cc(C)c(=O)[nH]c2=O)O1 (stereo not shown) [Compound 1129]
- EC50 (HIV-1; [4]): 2 µM
- EC50 (HIV-2 [1]; [4]): 4.5 µM
- EC50 (HIV-2 [2]; [5]): 50 µM
- CC50 (CEM cells; [4]): > 250 µM
- EC50 (MSV; Table 6): 47.4 µM
- MCC MSV: Minimum cytotoxic concentration in MSV assay ([3]; Table 6): >100

Compound: Cc1cn(C2C=CC(COP(=O)(O)O)O2)c(=O)[nH]c1=O (stereo not shown) [Compound 1131]
- EC50 (HIV-1; [4]): 0.4 µM
- EC50 (HIV-2 [1]; [4]): 0.6 µM
- EC50 (HIV-2 [2]; [5]): 50 µM
- CC50 (CEM cells; [4]): ≥ 250 µM
- EC50 (MSV; Table 6): 6.7 µM
- MCC MSV: Minimum cytotoxic concentration in MSV assay ([3]; Table 6): >100

Compound: CCOC(=O)CN(C)P(=O)(OC[C@@H]1C=C[C@H](n2cc(C)c(=O)[nH]c2=O)O1)Oc1ccccc1 (stereo partly shown) [Compound 1133, 2′,3′-dideoxy-2′,3′-didehydrothymidine 5′-(phenylethoxysarcosinyl phosphate)]
- EC50 (HIV-1; [4]): 75 µM
- EC50 (HIV-2 [1]; [4]): 87.5 µM
- EC50 (HIV-2 [2]; [5]): > 250 µM
- CC50 (CEM cells; [4]): ≥ 250 µM
- EC50 (MSV; Table 6): > 100 µM
- MCC MSV: Minimum cytotoxic concentration in MSV assay ([3]; Table 6): >100

Compound: COP(=O)(NC(C)C(=O)OCc1ccccc1)OCC1C=CC(n2cc(C)c(=O)[nH]c2=O)O1 (stereo not shown) [Compound 1135]
- EC50 (HIV-1; [4]): 10 µM
- EC50 (HIV-2 [1]; [4]): 15 µM
- EC50 (HIV-2 [2]; [5]): 17.5 µM
- CC50 (CEM cells; [4]): > 250 µM
- EC50 (MSV; Table 6): > 100 µM
- MCC MSV: Minimum cytotoxic concentration in MSV assay ([3]; Table 6): >100

Compound: Cc1cn(C2C=CC(COP(=O)(O)NC(C)C(=O)OCc3ccccc3)O2)c(=O)[nH]c1=O (stereo not shown) [Compound 1137]
- EC50 (HIV-1; [4]): 0.95 µM
- EC50 (HIV-2 [1]; [4]): 1.6 µM
- EC50 (HIV-2 [2]; [5]): 8 µM
- CC50 (CEM cells; [4]): ≥ 250 µM
- EC50 (MSV; Table 6): 15.7 µM
- MCC MSV: Minimum cytotoxic concentration in MSV assay ([3]; Table 6): >100

Compound: CSCC[C@H](NP(=O)(O)OC[C@@H]1C=C[C@H](n2cc(C)c(=O)[nH]c2=O)O1)C(=O)O [Compound 1156, 2′,3′-dideoxy-2′,3′-didehydrothymidine 5′-(methioninyl phosphate)]
- EC50 (HIV-1; [4]): 1.27 µM
- EC50 (HIV-2 [1]; [4]): 0.7 µM
- EC50 (HIV-2 [2]; [5]): 50 µM
- CC50 (CEM cells; [4]): > 250 µM
- EC50 (MSV; Table 6): 16.2 µM
- MCC MSV: Minimum cytotoxic concentration in MSV assay ([3]; Table 6): >100

Compound: COC(=O)C(Cc1ccccc1)NP(=O)(OCC1OC(n2cc(C)c(=O)[nH]c2=O)CC1N=[N+]=[N-])Oc1ccccc1 (stereo not shown) [Cpd 941]
- EC50 (HIV-1; CEM cells, HIV-1): > 50 µM
- EC50 (HIV-2 [1]; CEM cells, HIV-2): > 50 µM
- CC50 (CEM cells; CEM cells): 115 µM
- EC50 (MSV; MSV): > 100 µM
- MCC MSV: Minimum cytotoxic concentration in MSV assay ([3]; MSV assay): >100
